Measured values published in ChEMBL document CHEMBL3352111, “Cytotoxic activity of butane type of 1,7-seco-2,7'-cyclolignanes and apoptosis induction by Caspase 9 and 3” (Bioorg Med Chem Lett, 2014).
The source made the active and inactive calls. The rule behind the calls is not given here.

Tests used:
[1] = Cytotoxicity against human HL60 cells after 48 hrs by WST8 assay; type: functional, cell-based; settings: HL-60, 48 h
HeLa [2] = assay: Cytotoxicity against human HeLa cells after 48 hrs by WST8 assay; type: functional, cell-based
HeLa [3] = assay: Cytotoxicity against human HeLa cells assessed as inhibition of cell growth at 100 uM after 48 hrs by WST8 assay; type: functional; settings: read-out: GI
[4] = Cytotoxicity against human HL60 cells assessed as inhibition of cell growth at 100 uM after 48 hrs by WST8 assay; type: functional; settings: HL-60, 48 h, read-out: GI
HL-60 [5] = assay: Induction of apoptosis in human HL60 cells assessed as late apoptosis level at 0.2 uM after 24 hrs by Annexin V-PE and 7-AAD staining based flow cytometry (reference value: 3.3%); type: functional
HL-60 [6] = assay: Induction of apoptosis in human HL60 cells assessed as late apoptosis level at 8 uM after 24 hrs by Annexin V-PE and 7-AAD staining based flow cytometry (reference value: 3.2%); type: functional
HL-60 [7] = assay: Induction of apoptosis in human HL60 cells assessed as increase in caspase-3 level at 8 uM after 24 hrs by Western blotting method; type: functional, cell-based
HL-60 [8] = assay: Induction of apoptosis in human HL60 cells assessed as increase in DNA fragmentation at 25 uM after 4 hrs by ethidium bromide staining and gel electrophoresis based DNA ladder analysis; type: functional, cell-based
HL-60 [9] = assay: Induction of apoptosis in human HL60 cells assessed as increase in caspase-9 level at 8 uM after 12 hrs by Western blotting method; type: functional, cell-based
HL-60 [10] = assay: Induction of apoptosis in human HL60 cells assessed as early apoptosis level at 8 uM after 24 hrs by Annexin V-PE and 7-AAD staining based flow cytometry (reference value: 3.3%); type: functional
HL-60 [11] = assay: Induction of apoptosis in human HL60 cells assessed as reduction in pro-caspase-9 level at 8 uM after 24 hrs by Western blotting method; type: functional, cell-based

| SMILES | IC50 [1] [µM] | IC50 (HeLa [2]) [µM] | inhibition of growth at 100 µM (HeLa [3]) [%] | inhibition of growth at 100 µM [4] [%] | further results |
| --- | --- | --- | --- | --- | --- |
| COC[C@@H](C)[C@@H](C)C(c1ccc(O)c(OC)c1)c1ccc(O)c(OC)c1 | 85 | > 100 | 34 | – | – |
| COc1cc(C(c2ccc(O)c(OC)c2)[C@H](CO)C(C)C)ccc1O | > 100 | > 100 | 3 | 10 | – |
| COc1cc(C(c2ccc(O)c(OC)c2)[C@H](C)[C@@H](C)CF)ccc1O | 45 | 34 | – | – | – |
| COc1cc(C(c2ccc(O)c(OC)c2)[C@@H](CO)C(C)C)ccc1O | > 100 | > 100 | 2 | 18 | – |
| COc1cc(C(c2ccc(O)c(OC)c2)[C@H](C)[C@H](C)CF)ccc1O | 56 | 75 | – | – | – |
| COc1ccc(C(c2ccc(OC)c(OC)c2)[C@H](C)[C@H](C)CO)cc1OC | > 100 | > 100 | 13 | 28 | – |
| COc1cc(C(c2ccc(O)c(OC)c2)[C@H](C)[C@H](C)CO)ccc1O | > 100 | > 100 | 0 | 23 | – |
| COc1ccc(C(c2ccc(OC)c(OC)c2)[C@@H](C)[C@@H](C)CO)cc1OC | > 100 | > 100 | 55 | 42 | – |
| COC[C@H](C(C)C)C(c1ccc(O)c(OC)c1)c1ccc(O)c(OC)c1 | 72 | 76 | – | – | – |
| CN[C@@H]1C[C@H]2O[C@@](C)([C@@H]1OC)n1c3ccccc3c3c4c(c5c6ccccc6n2c5c31)C(=O)NC4 [STAUROSPORINE] | – | – | – | – | Activity (HL-60 [5]): 17.4% |
| COc1cc(C(c2ccc(O)c(OC)c2)[C@H](C)C(C)C)ccc1O | 17 | 16 | – | – | – |
| COc1cc(C(c2ccc(O)c(OC)c2)[C@@H](C)[C@H](C)CF)ccc1O | 32 | 37 | – | – | – |
| COc1cc(C(c2ccc(O)c(OC)c2)[C@@H](C)[C@@H](C)CO)ccc1O | > 100 | > 100 | 8 | 3 | – |
| COc1cc(C(c2ccc(O)c(OC)c2)[C@@H](C)[C@H](C)CO)ccc1O | > 100 | > 100 | 7 | 0 | – |
| COc1ccc(C(c2ccc(OC)c(OC)c2)[C@@H](C)[C@H](C)CO)cc1OC | > 100 | > 100 | 0 | 0 | – |
| COc1ccc(C(c2ccc(OC)c(OC)c2)[C@H](C)[C@@H](C)CO)cc1OC | 47 | 67 | – | – | – |
| COC[C@H](C)[C@@H](C)C(c1ccc(O)c(OC)c1)c1ccc(O)c(OC)c1 | 68 | 77 | – | – | – |
| COC[C@@H](C(C)C)C(c1ccc(O)c(OC)c1)c1ccc(O)c(OC)c1 | 54 | 69 | – | – | – |
| COc1cc(C(c2ccc(O)c(OC)c2)[C@@H](C)[C@@H](C)CF)ccc1O | 38 | 42 | – | – | – |
| COc1cc(C(c2ccc(O)c(OC)c2)[C@@H](CF)C(C)C)ccc1O | 39 | 41 | – | – | – |
| CCCCC[C@H](C(C)C)C(c1ccc(O)c(OC)c1)c1ccc(O)c(OC)c1 | 9.6 | 9.2 | – | – | – |
| CC[C@H](C(C)C)C(c1ccc(O)c(OC)c1)c1ccc(O)c(OC)c1 | 16 | 9.7 | – | – | – |
| COC[C@H](C)[C@H](C)C(c1ccc(O)c(OC)c1)c1ccc(O)c(OC)c1 | 82 | 72 | – | – | – |
| COc1cc(C(c2ccc(O)c(OC)c2)[C@@H](C)C(C)C)ccc1O | 20 | 19 | – | – | – |
| COc1cc(C(c2ccc(O)c(OC)c2)[C@H](CF)C(C)C)ccc1O | 19 | 19 | – | – | – |
| COc1cc(C(c2ccc(O)c(OC)c2)[C@H](C)[C@@H](C)CO)ccc1O | > 100 | > 100 | 7 | 7 | – |
| COC[C@@H](C)[C@H](C)C(c1ccc(O)c(OC)c1)c1ccc(O)c(OC)c1 | 73 | 58 | – | – | – |
| CCCCCCCC[C@H](C(C)C)C(c1ccc(O)c(OC)c1)c1ccc(O)c(OC)c1 | 3.7 | 3.1 | – | – | Activity (HL-60 [6]): 33.1%; Activity (HL-60 [7]): Active; Activity (HL-60 [8]): Active; Activity (HL-60 [9]): Active; Activity (HL-60 [10]): 13.5%; Activity (HL-60 [11]): Active |
| COc1cc(C(c2ccc(O)c(OC)c2)[C@H](CC(C)C)C(C)C)ccc1O | 9.6 | 8.2 | – | – | – |
